Where “and” joins values, the source holds several entries; their conditions need not be identical. Equal entries are not always repeated.
Tested on: BDF1 mice, Adenocarcinoma 755 s.c., tumor weight T/C
Test: NCI In Vivo Anticancer Drug Screen. Data for tumor model Adenocarcinoma 755 (subcutaneous) in B6D2F1 (BDF1) mice
Details: endpoint: mean tumor weight, higher = larger tumour
In short: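 In vivo antitumor screen on a transplantable tumor line. Result equals the measure in compound-treated animals divided by the same measure in vehicle controls.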

[1] = dose: 31.0 mg/kg/injection, schedule: Q01DX011 (ip), vehicle: methylcellulose (MC)
[2] = dose: 62.0 mg/kg/injection, schedule: Q01DX011 (ip), vehicle: methylcellulose (MC)
[3] = dose: 125.0 mg/kg/injection, schedule: Q01DX011 (ip), vehicle: methylcellulose (MC)
[4] = dose: 250.0 mg/kg/injection, schedule: Q01DX011 (ip), vehicle: methylcellulose (MC)
[5] = dose: 25.0 mg/kg/injection, schedule: Q01DX011 (ip), vehicle: methylcellulose (MC)
[6] = dose: 75.0 mg/kg/injection, schedule: Q01DX011 (ip), vehicle: methylcellulose (MC)
[7] = dose: 225.0 mg/kg/injection, schedule: Q01DX011 (ip), vehicle: methylcellulose (MC)
[8] = dose: 30.0 mg/kg/injection, schedule: Q01DX011 (ip), vehicle: carboxymethylcellulose (CMC)

`CCc1c(Cl)nc(N)nc1Nc1ccc(Br)cc1` was tested, and the T/C [1] was 118 % of control, the T/C [2] was 105 % of control and the T/C [3] was 106 % of control. For the same compound, the T/C [4] was 116 % of control.

For `Cc1ccc2ccccc2c1CSc1nc(N)nc2c1ncn2CC(C)C`, the T/C [5] was 115 % of control, the T/C [6] was 80 % of control and the T/C [7] was 97 % of control.

For `Nc1nc(Cl)cc(-c2ccccc2)n1`, the T/C (dose: 15.0 mg/kg/injection, schedule: Q01DX011 (ip), vehicle: methylcellulose (MC)) was 86 % of control, the T/C [1] was 122 % of control and the T/C [2] was 94 % of control. For the same compound, the T/C [3] was 65 % of control and the T/C [4] was 107 % of control.

`S=c1nc[nH]c2c1ncn2C1CCCCC1` was tested, and the T/C (dose: 62.0 mg/kg/injection, schedule: Q01DX011 (ip), vehicle: carboxymethylcellulose (CMC)) was 117 % of control, the T/C (dose: 125.0 mg/kg/injection, schedule: Q01DX011 (ip), vehicle: carboxymethylcellulose (CMC)) was 118 % of control and the T/C (dose: 188.0 mg/kg/injection, schedule: Q01DX011 (oral), vehicle: carboxymethylcellulose (CMC)) was 154 % of control. For the same compound, the T/C (dose: 250.0 mg/kg/injection, schedule: Q01DX011 (ip), vehicle: carboxymethylcellulose (CMC)) was 66 % of control, the T/C (dose: 376.0 mg/kg/injection, schedule: Q01DX011 (oral), vehicle: carboxymethylcellulose (CMC)) was 104 % of control and the T/C (dose: 500.0 mg/kg/injection, schedule: Q01DX011 (ip), vehicle: carboxymethylcellulose (CMC)) was 62 % of control. For the same compound, the T/C (dose: 752.0 mg/kg/injection, schedule: Q01DX011 (oral), vehicle: carboxymethylcellulose (CMC)) was 87 % of control.

For `CC1CCC(n2cnc3c(Cl)ncnc32)O1` (stereo not drawn), the T/C (dose: 3.7 mg/kg/injection, schedule: Q01DX011 (ip), vehicle: carboxymethylcellulose (CMC)) was 58 % of control, the T/C (dose: 7.5 mg/kg/injection, schedule: Q01DX011 (ip), vehicle: carboxymethylcellulose (CMC)) was 35 % of control and the T/C (dose: 15.0 mg/kg/injection, schedule: Q01DX011 (ip), vehicle: carboxymethylcellulose (CMC)) was 63 % of control. The T/C [8] was 15 % of control and 23 % of control and the T/C (dose: 60.0 mg/kg/injection, schedule: Q01DX011 (ip), vehicle: carboxymethylcellulose (CMC)) was 5 % of control.

In the case of `Brc1ncnc2c1ncn2C1CCCS1` (stereo not drawn), the T/C [5] is reported as 75 % of control, the T/C [6] is reported as 66 % of control and the T/C [7] is reported as 86 % of control.

`Nc1nc(Oc2ccc(Cl)cc2)c2n[nH]nc2n1` was tested, and the T/C (dose: 200.0 mg/kg/injection, schedule: Q01DX011 (ip), vehicle: carboxymethylcellulose (CMC)) was 66 % of control.

With `CN(C)c1ccc2nc3ccc(=[N+](C)C)cc-3sc2c1` the T/C (dose: 5.0 mg/kg/injection, schedule: Q01DX011 (ip), vehicle: carboxymethylcellulose (CMC)) was 51 % of control, the T/C (dose: 5.24 mg/kg/injection, schedule: Q01DX011 (ip), vehicle: carboxymethylcellulose (CMC)) was 69 % of control and the T/C (dose: 5.76 mg/kg/injection, schedule: Q01DX011 (ip), vehicle: carboxymethylcellulose (CMC)) was 103 % of control. The T/C (dose: 10.0 mg/kg/injection, schedule: Q01DX011 (ip), vehicle: carboxymethylcellulose (CMC)) was 99 % of control, the T/C (dose: 10.48 mg/kg/injection, schedule: Q01DX011 (ip), vehicle: carboxymethylcellulose (CMC)) was 109 % of control and the T/C (dose: 11.53 mg/kg/injection, schedule: Q01DX011 (ip), vehicle: carboxymethylcellulose (CMC)) was 97 % of control. The T/C (dose: 20.0 mg/kg/injection, schedule: Q01DX011 (ip), vehicle: carboxymethylcellulose (CMC)) was 113 % of control, the T/C (dose: 20.95 mg/kg/injection, schedule: Q01DX011 (ip), vehicle: carboxymethylcellulose (CMC)) was 100 % of control and the T/C (dose: 25.0 mg/kg/injection, schedule: Q01DX011 (ip), vehicle: carboxymethylcellulose (CMC)) was 123 % of control. The T/C [8] was 103 % of control, the T/C (dose: 35.0 mg/kg/injection, schedule: Q01DX011 (ip), vehicle: carboxymethylcellulose (CMC)) was 104 % of control and the T/C (dose: 40.0 mg/kg/injection, schedule: Q01DX011 (ip), vehicle: carboxymethylcellulose (CMC)) was 68 % of control.

`CCCSc1nc(N)nc2c1ncn2C1OC(CO)C(O)C1O` (stereo not drawn) was tested, and the T/C (dose: 3.1 mg/kg/injection, schedule: Q01DX011 (ip), vehicle: methylcellulose (MC)) was 33 % of control, the T/C (dose: 6.25 mg/kg/injection, schedule: Q01DX011 (ip), vehicle: methylcellulose (MC)) was 4 % of control and the T/C (dose: 12.5 mg/kg/injection, schedule: Q01DX011 (ip), vehicle: methylcellulose (MC)) was 2 % of control.

Source: PubChem BioAssay AID180 (DTP/NCI, 2004)
